How the values were obtained:
Nrf2 = experiment: Luciferase activity in AREc32 cells after scramble or GSK3β siRNA; assay type: cell-based, human; conditions: 10 μM, 24 h
Experimental: (§1) To further evaluate the potential relationship between GSK3β inhibition and the Nrf2 induction properties we used two different approaches. […] Cells were treated with compound 5m at increasing concentrations alone or in presence of Li (10 mM) during 24 h and thereafter, luciferase activity was evaluated. […] Secondly, to corroborate the independence of the Nrf2 induction properties of our derivatives from their GSK3β inhibitory properties, we used GSK3β knock down experimental conditions using siRNA. […] After knockdown of GSK3β, AREc32 cells were incubated with compound 5m (10 μM) during 24 h (Fig. 4B). Subsequently, luciferase activity and HO-1 expression were analyzed. […] Similar results were obtained when HO-1 expression was analyzed (Fig. 4D), compound 5m increased HO-1 expression 3.9 times after scramble treatment and 3.5 times after knockdown of GSK3β showing no statistical differences between both conditions. […]
(§2) Figure 4 Nrf2 induction properties are independent of the GSK3β inhibitory activity. […] (D) HO-1 expression induced by compound 5m (10 μM) measured at the same experimental conditions used previously. Values are expressed as mean ± SEM of three independent experiments in duplicate. ^###p < 0.001; ^##p < 0.01; ^#p < 0.05 compared to the correspondent basal conditions. […]

HO-1 = HO-1 expression in AREc32 cells after scramble or GSK3β siRNA (western blot); assay type: cell-based, human; conditions: 10 μM, 24 h
Experimental: as §1, §2

Cc1[nH]nc2c1C(c1ccc(Br)cc1)C(C#N)=C(N)O2 (stereo not shown) [Compound 5m, 6-Amino-4-(4-bromophenyl)-3-methyl-2,4-dihydropyrano[2,3-c]pyrazole-5-carbonitrile]
Luciferase activity fold increase compared to basal conditions (Nrf2; GSK3β silenced (siGSK3β)): 2.8 fold | Luciferase activity fold increase compared to basal conditions (Nrf2; cells previously treated with scramble control siRNA): 2.2 fold | HO-1 expression increase (HO-1; after knockdown of GSK3β): 3.5 times | HO-1 expression increase (HO-1; after scramble treatment): 3.9 times
